The test system of the test is Mtb pheS–FDAS. Type of test: cell-based, Mycobacterium tuberculosis.

Structures are written as SMILES. In brackets after ≈: the same amount, converted by molar mass.

From publication PMC7948948 (The Journal of Biological Chemistry, 2021) come the findings set out here.

Turning to `O=C(Nc1cccnc1)N1CCC(Cc2cccc(Oc3ccc(C(F)(F)F)cn3)c2)CC1` [PF-3845], the “MIC, pheS–FDAS mutant” value is 40 µM (≈ 18.3 µg/mL).
